Test results from patent publication US20260176252A1, “IONIZABLE LIPIDS WITH BRANCHED HEAD GROUPS” (Beam Therapeutics Inc., priority 2023, published 2026).

Columns and labels:
[1] = Encapsulation efficiency of LNP preparations (unlysed and lysed LNPs); assay type: physicochemical; settings: for AVG EE(%): Table A, LNP 47.5% Ionizable Lipid:40% cholesterol:2.5% PEG-2000 DMG:10% DPSC, N/P 4.5-6, NA cargo with barcode
Experimental: Concentration of NA is determined by Qubit microRNA kit (for siRNA) or HS RNA kit (for mRNA) per manufacturer's instructions. Encapsulation efficiency is determined by measuring unlysed and lysed LNPs.

[2] = system: ALAS1 target site; experiment: In vivo base editing with LNP-delivered ABE mRNA and sgRNA targeting ALAS1; settings: Balb/c mice, IV tail vein, 4 days after dosing; for Liver Editing A->G (%): ALAS1, liver; for Quadracept Editing A->G (%): ALAS1, Quadracept (muscle)
Experimental: Exemplary LNP preparations are selected to determine each preparation's ability to perform base editing in a Balb/C mouse model as described herein.
Lipid nanoparticle components are dissolved in 100% ethanol at specified lipid component molar ratios. mRNA encoding an adenine base editor and a chemically-modified sgRNA is dissolved at a mass ratio of 1:1 in 10 mM citrate, 100 mM NaCl, pH 4.0, resulting in a concentration of NA cargo of approximately 0.22 mg/mL. LNP preparations are formulated with molar ratios of either 50% Ionizable Lipid:38.5% Cholesterol:1.5% PEG2000-DMG: 10% DSPC or 47.5% Ionizable Lipid:40% Cholesterol:2.5% PEG2000-DMG: 10% DSPC both at a total lipid to NA molar ratio of 6.
(§1) LNP preparations are formed by microfluidic mixing of the lipid and NA solutions using a Precision Nanosystems NanoAssemblr Ignite Instrument, according to the manufacturer's protocol. A 3:1 ratio of aqueous to organic solvent is maintained during mixing using differential flow rates. After mixing, LNP preparations are collected, diluted in PBS (approximately 2:1 v/v), and further buffer exchange is conducted using dialysis in PBS at 4° C. for 8 to 24 hours against a 20 kDa filter. After this initial dialysis, each individual LNP preparation is characterized via dynamic light scattering (DLS) to measure size and polydispersity. pKa of a subpopulation of LNP preparations is measured via TNS assay. After dialysis, LNP preparations are sterile filtered using 0.22 micron sterile filter and stored at 4° C. for further use. In some embodiments, LNP preparations may be concentrated using 100 kDa Amicon filters per manufacturer's protocol.
Male Balb/C mice aged approximately 8-12 weeks are used in the experiments described herein. Each mouse is temporarily restrained, and LNP preparations are administered IV via tail vein injection. Age-matched mice are also used to administer vehicle (1×PBS) via tail vein injection as a control. Four to six days post-dose, tissues including liver, spleen, heart and muscle are collected (only liver and muscle (quardracept) are reported). Genomic DNA is isolated and fragmented and adapter-ligated using the Nextera DNA Flex Library Prep Kit (Illumina) using the 96-well plate Nextera indexing primers (Illumina), according to the manufacturer's instructions. Library size and concentration is confirmed by Fragment Analyzer (Agilent) and sent to Novogene for whole genome sequencing using an Illumina HiSeq.
For base editing, mRNA encoding an adenine base editor (ABE) and a guide RNA (sgRNA) targeting ALAS1 at 1:1 (mass ratio) are coencapsulated in LNP preparations as described herein. LNP preparations are administrated into Balb/c mice through tail vein injections at concentrations ranging from 0.05 to 3.0 mg/kg total RNA. At 4 days after dosing, mice are euthanized and liver, spleen and bone barrow are harvested. Base editing is determined by performing targeted deep sequencing analysis at the ALAS1 target site using extracted genomic DNA.

[3] = Dynamic light scattering (DLS) of LNP preparations: size (diameter) and polydispersity; assay type: physicochemical; settings: for AVG PDI / AVG Z Dia (nm): Table A, LNP 47.5% Ionizable Lipid:40% cholesterol:2.5% PEG-2000 DMG:10% DPSC, N/P 4.5-6
Experimental: A ratio of aqueous to organic solvent of approximately 2:1 or 3:1 was maintained during mixing using differential flow rates. After mixing, LNP preparations were collected, diluted in phosphate buffer saline (PBS) or Tris-buffered saline (TBS) (approximately 1:1 v/v). Further buffer exchange was conducted using dialysis in PBS or TBS at 4° C. for 4 to 24 hours against a 20 kDa filter. After this initial dialysis, each individual LNP preparation may be characterized via dynamic light scattering (DLS) to measure the size (e.g., diameter) and polydispersity. LNP preparations falling within specific diameter and polydispersity ranges were pooled, and further dialyzed against PBS or TBS at 4° C. for 1 to 4 hours against a 100 kDa dialysis cassette. After the second dialysis, LNP preparations were sterile filtered using 0.22 μm filter and stored at 4° C. for further use.
as §1
DLS-LNP preparation hydrodynamic diameter and polydispersity index (PDI) is measured using high throughput dynamic light scattering (DLS) (DynaPro plate reader II, Wyatt). LNP preparations are diluted 1×PBS to an appropriate concentration and analyzed.

[4] = pKa of LNP preparations via TNS assay; assay type: physicochemical; settings: Table D; LNP formulation ratio 47.5:40:2.5:10
Experimental: as §1

[5] = Table C, LNP formulation ratio 47.5:40:2.5:10, ABE mRNA + ALAS1 sgRNA 1:1
[6] = Table D, LNP formulation ratio 47.5:40:2.5:10, ABE mRNA + PCSK9 sgRNA 1:1

EE (%) [1, 5] [%]	Diameter (nm) [3, 5] [nm]	PDI (%) [3, 5] [%]	EE (%) [1, 6] [%]	Diameter (nm) [3, 6] [nm]	pKa [4]	Molecule	other results
87.2	124.45	10.6	–	–	–	7,7′-bis(2-(pent-4-en-1-yl)hept-6-en-1-yl) O′1,O1-(2-(((4-(((2-(pyrrolidin-1-yl)ethyl)carbamoyl)oxy)decanoyl)oxy)methyl)propane-1,3-diyl) di(heptanedioate) [Example 4]	Liver Editing A->G (%) ([2]; Dose 0.05 MPK total RNA): 1.59%
95.75	64.4	8.2	–	–	–	C=CCCCCCC(CCCCCC=C)OC(=O)CCCCCC(=O)OCC(COC(=O)CCCCCC(=O)OC(CCCCCC=C)CCCCCC=C)COC(=O)CCC(CCCCC)OC(=O)NCCN1CCCC1 (stereo not shown) [Example 2, 7,7′-di(pentadeca-1,14-dien-8-yl) O′1,O1-(2-(((4-(((2-(pyrrolidin-1-yl)ethyl)carbamoyl)oxy)nonanoyl)oxy)methyl)propane-1,3-diyl) di(heptanedioate)]	AVG EE(%) [1]: 90.7%; Quadracept Editing A->G (%) ([2]; Dose 1.5 MPK total RNA): 1.7%; Liver Editing A->G (%) ([2]; Dose 1.5 MPK total RNA): 86.3%; AVG PDI [3]: 0.09; AVG Z Dia (nm) [3]: 78.76 nm
95.84	64.5	8.2	–	–	–	C=CCCCCCC(CCCCCC=C)COC(=O)CCCCC(=O)OCC(COC(=O)CCCCC(=O)OCC(CCCCCC=C)CCCCCC=C)COC(=O)CCC(CCCCCC)OC(=O)NCCN1CCCC1 (stereo not shown) [Example 5, bis(2-(hept-6-en-1-yl)non-8-en-1-yl) O,O′-(2-(((4-(((2-(pyrrolidin-1-yl)ethyl)carbamoyl)oxy)decanoyl)oxy)methyl)propane-1,3-diyl) diadipate]	AVG EE(%) [1]: 93.9%; Quadracept Editing A->G (%) ([2]; Dose 1.5 MPK total RNA): 1.5%; Liver Editing A->G (%) ([2]; Dose 1.5 MPK total RNA): 79.8%; AVG PDI [3]: 0.08; AVG Z Dia (nm) [3]: 79.74 nm
95.5	71	10.8	–	–	–	CC/C=C\CCCC(CCC/C=C\CC)OC(=O)CCCCCC(=O)OCC(COC(=O)CCCCCC(=O)OC(CCC/C=C\CC)CCC/C=C\CC)COC(=O)CCC(CCCCCC)OC(=O)NCCN1CCCC1 (stereo not shown) [Example 6, 7,7′-di((3Z,12Z)-pentadeca-3,12-dien-8-yl) O′1,O1-(2-(((4-(((2-(pyrrolidin-1-yl)ethyl)carbamoyl)oxy)decanoyl)oxy)methyl)propane-1,3-diyl) di(heptanedioate)]	Quadracept Editing A->G (%) ([2]; Dose 1.5 MPK total RNA): 2.5%; Liver Editing A->G (%) ([2]; Dose 1.5 MPK total RNA): 88.7%
–	–	–	91.7	134.3	7.17	CCCCCCC(CCC(=O)OCC(COC(=O)CCCCCC(=O)OC/C=C(\C)CCC=C(C)C)COC(=O)CCCCCC(=O)OC/C=C(\C)CCC=C(C)C)OC(=O)NCCN1CCCC1 (stereo not shown) [Example 7, 1-(2E)-3,7-dimethylocta-2,6-dien-1-yl 7-{3-[(7-{[(2E)-3,7-dimethylocta-2,6-dien-1-yl]oxy}-7-oxoheptanoyl)oxy]-2-({[4-({[2-(pyrrolidin-1-yl)ethyl]carbamoyl}oxy)decanoyl]oxy}methyl)propyl}heptanedioate]	–
–	–	–	94.3	110.35	6.74	CCCCCCC(CCC(=O)OCC(COC(=O)CCCCCC(=O)OCCC(C)CCCC(C)C)COC(=O)CCCCCC(=O)OCCC(C)CCCC(C)C)OC(=O)NCCN1CCCC1 (stereo not shown) [Example 8, 1-(3,7-Dimethyloctyl)-7-[3-({7-[(3,7-dimethyloctyl)oxy]-7-oxoheptanoyl}oxy)-2-({[4-({[2-(pyrrolidin-1-yl)ethyl]carbamoyl}oxy)decanoyl]oxy}methyl)propyl]heptanedioate]	–
–	–	–	85.3	148.65	6.85	CCCCCCC(CCC(=O)OCC(COC(=O)CCCCCC(=O)OCCC(C)CCC=C(C)C)COC(=O)CCCCCC(=O)OCCC(C)CCC=C(C)C)OC(=O)NCCN1CCCC1 (stereo not shown) [Example 9, 1-(3,7-dimethyloct-6-en-1-yl) 7-[3-({7-[(3,7-dimethyloct-6-en-1-yl)oxy]-7-oxoheptanoyl}oxy)-2-({[4-({[2-(pyrrolidine-1-yl)ethyl]carbamoyl}oxy)decanoyl]oxy}methyl)propyl]heptanedioate]	–
–	–	–	99.1	135.28	6.814	C=CC(C)(CCC=C(C)C)OC(=O)CCCCCC(=O)OCC(COC(=O)CCCCCC(=O)OC(C)(C=C)CCC=C(C)C)COC(=O)CCC(CCCCCC)OC(=O)NCCN1CCCC1 (stereo not shown) [Example 10, 1-(3,7-dimethylocta-1,6-dien-3-yl)-7-[3-({7-[(3,7-dimethylocta-1,6-dien-3-yl)oxy]-7-oxoheptanoyl}oxy)-2-({[4-({[2-(pyrrolidin-1-yl)ethyl]carbamoyl}oxy)decanoyl]oxy}methyl)propyl]heptanedioate]	–
–	–	–	90.5	152.05	6.85	CCCCCCC(CCC(=O)OCC(COC(=O)CCCCCC(=O)OC/C=C(/C)CCC=C(C)C)COC(=O)CCCCCC(=O)OC/C=C(/C)CCC=C(C)C)OC(=O)NCCN1CCCC1 (stereo not shown) [Example 11, 1-(2Z)-3,7-dimethylocta-2,6-dien-1-yl-7-{3-[(7-{[(2Z)-3,7-dimethylocta-2,6-dien-1-yl]oxy}-7-oxoheptanoyl)oxy]-2-({[4-({[2-(pyrrolidin-1-yl)ethyl]carbamoyl}oxy)decanoyl]oxy}methyl)propyl}heptanedioate]	–
–	–	–	87.7	163	6.68	C=C(C)C(CC=C(C)C)COC(=O)CCCCCC(=O)OCC(COC(=O)CCCCCC(=O)OCC(CC=C(C)C)C(=C)C)COC(=O)CCC(CCCCCC)OC(=O)NCCN1CCCC1 (stereo not shown) [Example 12, 1-[5-methyl-2-(prop-1-en-2-yl)hex-4-en-1-yl]-7-(2-{[(7-{[5-methyl-2-(prop-1-en-2-yl)hex-4-en-1-yl]oxy}-7-oxoheptanoyl)oxy]methyl}-3-{[4-({[2-(pyrrolidin-1-yl)ethyl]carbamoyl}oxy)decanoyl]oxy}propyl) heptanedioate]	–
82.63	140.85	5.5	–	–	–	Bis(2-(pent-4-en-1-yl)hept-6-en-1-yl) O,O′-(2-(((4-(((2-(118yrrolidine-1-yl)ethyl)carbamoyl)oxy)decanoyl)oxy)methyl)propane-1,3-diyl) diadipate [Example 3]	–
